Experimental data reported in patent publication US12263248B2, “Compounds and compositions for intracellular delivery of therapeutic agents” (ModernaTX, Inc., priority 2018, dated 2025).

Columns and labels:
[1] = Particle size and polydispersity index of nanoparticle compositions (Zetasizer Nano ZS); format: physicochemical; settings: Table 1A; for Size (nm): lipid:DSPC:cholesterol:PEG-DMG 50:10:38.5:1.5 mol %
Summary of the method: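 Particle size and PDI were measured on a Zetasizer Nano ZS with the nanoparticle compositions dispersed in 1×PBS.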

[2] = test system: luciferase (Luc) mRNA; test: Luc expression, whole body bioluminescence after intravenous administration to mice; format: in vivo; settings: for Fold increase in total body Luc Flux relative to MC3 at 6 h: Table 3A; for Total Flux 3 hours / Total Flux 6 hours / Total Flux 24 hours: mice, i.v., 0.5 mg/kg, Luc mRNA
Summary of the method: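 Luc mRNA nanoparticle formulations given intravenously to mice (n=6) at 0.5 mg/kg; whole-body bioluminescence imaged at 3, 6 and 24 h. CD-1 mice received IP D-luciferin (200 μL of 15 mg/mL) 15 min before imaging; total flux quantified by region of interest.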

[3] = test system: luciferase (Luc) mRNA; test: Luc expression in liver, lung, spleen and femur 6 hours after intravenous administration; format: in vivo; settings: mice, intravenous, 0.5 mpk
Summary of the method: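 LNP-formulated mRNA given IV to mice (n=3) at 0.5 mpk; at 6 h, bioluminescence imaged ex vivo 15 min after IP D-luciferin (15 mg/mL, 200 μL), organs imaged within 25 min. Values are total flux by region of interest.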

[4] = Encapsulation efficiency of RNA (QUANT-IT RIBOGREEN RNA assay); format: physicochemical; settings: Table 1A
Summary of the method: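 RiboGreen fluorescence (ex ~480, em ~520 nm) compared between intact samples and Triton X-100-lysed samples after 15 min at 37 °C in TE buffer, pH 7.5. Percent free RNA is the blank-corrected intact/disrupted ratio.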

[5] = Apparent (surface) pKa of the LNP formulation (TNS assay); format: physicochemical; settings: Table 1A
Protocol: Using sodium hydroxide (1 M) and hydrochloric acid (1 M), 21 unique buffers were prepared from the master buffer stock at pH values between about 3 and 12. Next, a stock of 300 μM 6-(p-Toluidino)-2-naphthalenesulfonic acid sodium salt (TNS reagent) in DMSO was prepared and the LNP was mixed with the desired formulation buffer at a concentration of 0.04 mg/mL mRNA. This assay has been validated in 1× PBS and 20 mM Tris w/8% sucrose buffer. The buffer solutions at various pH values were added to a 96-well plate in triplicate for each pH. To each well was added 3.26 μL of LNP sample at a mRNA concentration of 0.04 mg/mL and 2.0 μL of 300 μM TNS reagent solution. After careful mixing, the resulting fluorescence values were read for each plate to create a sigmoidal plot of the fluorescence values vs. buffer pH. The […] inflection point of this curve is the apparent pKa of the LNP formulation.

| Compound | PDI [1] | Size (nm) [1] | EE (%) [4] | pKa [5] | Fold increase in total body Luc Flux relative to MC3 at 6 h ([2]; i.v. administration) | flux measured at 6 h relative to the MC3 formulation ([2]; i.v. administration, in words) | Total Flux 3 hours [2] | Total Flux 6 hours [2] | Total Flux 24 hours [2] | Total Flux Liver [3] | Total Flux Lung [3] | Total Flux Spleen [3] |
| --- | --- | --- | --- | --- | --- | --- | --- | --- | --- | --- | --- | --- |
| CCCCCCCCC(CCCCCCCC)OC(=O)CCCCCCCN(CCO)CCCC(=O)OCCCCCCC [Compound 54, heptadecan-9-yl 8-((4-(heptyloxy)-4-oxobutyl)(2-hydroxyethyl)amino) octanoate] | 0.19 | 112.9 nm | 96.71% | 6.51 | 3.80 | higher flux than MC3 formulations | 5.36E+10 | 4.18E+10 | 9.07E+08 | 5.57E+09 | 1.12E+07 | 1.64E+08 |
| CCCCCCCCC(CCCCCCCC)OC(=O)CCCCCCCN(CCO)CCCC(=O)OC(CCCCCC)CCCCCCCC (stereo not drawn) [Compound 73, Heptadecan-9-yl 8-((2-hydroxyethyl)(4-oxo-4-(pentadecan-7-yloxy)butyl)amino)octanoate] | 0.13 | 59.2 nm | 95.7% | 5.95 | 0.48 |  | 8.10E+09 | 1.07E+10 | 1.27E+08 | 7.93E+08 | 6.17E+06 | 9.45E+06 |
| CCCCCCCCCOC(=O)CCCCCCCN(CCO)CCCCCCCCCOP(=O)(OCCCCCCCCC)OCCCCCCCCC [Compound 127, Nonyl 8-((9-((bis(nonyloxy)phosphoryl)oxy)nonyl)(2-hydroxyethyl)amino)octanoate] | 0.19 | 110.4 nm | 89.5% | 6.98 | 0.094 |  | 3.81E+09 | 2.09E+09 | 4.56E+08 | 1.94E+08 | 5.26E+06 | 3.21E+08 |

More lines, main results first:

| PDI [1] | Size (nm) [1] | EE (%) [4] | pKa [5] | Compound | Fold increase in total body Luc Flux relative to MC3 at 6 h ([2]; i.v. administration) | flux measured at 6 h relative to the MC3 formulation ([2]; i.v. administration, in words) | Total Flux 3 hours [2] | Total Flux 6 hours [2] | Total Flux 24 hours [2] | Total Flux Liver [3] | Total Flux Lung [3] | Total Flux Spleen [3] |
| --- | --- | --- | --- | --- | --- | --- | --- | --- | --- | --- | --- | --- |
| 0.15 | 73.7 nm | 97.5% | 6.51 | CCCCCCCCC(C)OC(=O)CCCN(CCO)CCCCCCCC(=O)OC(CCCCCCCC)CCCCCCCC (stereo not drawn) [Compound 70, Heptadecan-9-yl 8-((4-(decan-2-yloxy)-4-oxobutyl)(2-hydroxyethyl)amino)octanoate] |  |  | 4.70E+10 | 2.49E+10 | 9.27E+08 | 8.55E+08 | 6.32E+06 | 2.06E+06 |
| 0.18 | 77.4 nm | 96.8% | 6.00 | CCCCCCCCCOC(=O)CCCN(C)CCCCCCCC(=O)OC(CCCCCCCC)CCCCCCCC [Compound 126, Heptadecan-9-yl 8-(methyl(4-(nonyloxy)-4-oxobutyl)amino)octanoate] |  |  | 7.59E+09 | 1.09E+10 | 1.40E+08 | 7.41E+08 | 2.68E+06 | 1.87E+07 |
